# Measurements as given in US20260034051A1, “STABLE INJECTABLE CANNABIDIOL FORMULATIONS” (CARDIOL THERAPEUTICS INC., priority 2022, published 2026).
# Assay: Solubility of cannabidiol in alkyl esters of octanoic acid
# Type: physicochemical
# Conditions: in methyl octanoate and/or ethyl octanoate
# Experimental: The cannabidiol can be present in an amount of from about 100 mg/mL. The cannabidiol can also be present in an amount up to about 150 mg/mL, 200 mg/ml, 250 mg/mL, 300 mg/mL, or 350 mg/mL, with higher concentrations of cannabidiol being preferred to reduce injection volume and promote ease of administration while reducing patient discomfort. The identity of ingredients and their amounts in the solvent system will determine the actual amount of cannabidiol that can be fully dissolved. […] Therefore, the higher the amount of alkyl ester of fatty acid that is present, the higher the amount of cannabidiol that can be dissolved.
compound,measurement,value
"C=C(C)[C@@H]1CCC(C)=C[C@H]1c1c(O)cc(CCCCC)cc1O [cannabidiol, Cannabidiol]",amount of cannabidiol that can be dissolved,at least 750 mg/mL
